Results reported in publication PMC12518639, “Apomorphine is a novel necroptosis inhibitor targeting mixed lineage kinase domain-like protein oligomerization” (Cell Death Discovery, 2025).

What was measured:
Nt-hMLKL^C86A/L89A/D94A = molecular target: T1, Nt-hMLKL^C86A/L89A/D94A (Homo sapiens, UniProt Q8NB16, C86A/D94A/L89A); assay: SPR binding to Nt-hMLKL triple mutant; conditions: CM5 chip
T1 construct: an N-terminal domain (Nt-hMLKL, amino acids 2–154, MW: 23 kDa) involved in oligomerization; His (N); made in house; host or cells: E. coli BL21
Description: The hMLKL plasmid (RC213152, OriGene, Rockville, MD, USA), and recombinant Wt-hMLKL (ab241453, Abcam) and Wt-mMLKL (MBS1379843, MyBioSource, San Diego, CA, USA) proteins were purchased. Nt-hMLKL (2–154), Nt-mMLKL (1–180), and Ct-hMLKL (183–471) were generated using the pBT7-N-His vector. Nt-hMLKL^C86A, Nt-hMLKL^F148A, -hMLKL^C86A/L89A/D94A, and Nt-hMLKL^R145A/R146A/F148A/M150A were generated using the Site-directed Mutagenesis Kit (EZ004S, Enzynomics, S. Korea). These constructs were subcloned into pBT7-N-His and pET-15b plasmid vectors. E. coli BL21 cells transformed with the cloned expression vectors were cultured in LB medium and supplemented with 100 μg/mL ampicillin until an OD at 600 nm of 0.5–0.6 was reached. The cultures were induced by 1 mM IPTG (367-93-1, Sigma-Aldrich). The cells were lysed and centrifuged. The clear supernatants were subjected to Ni-NTA affinity chromatography (175018169, QIAGEN, Hilden, Germany). Plasmids encoding mMLKL (1–464)–gyrase fusion constructs were kindly provided by Prof. […]
The interactions of Wt-hMLKL, Wt-mMLKL, Nt-mMLKL, Nt, and Ct-hMLKL proteins with Re-APO or Ox-APO were detected through SPR analysis using Biacore™ T200 (Cytiva, Marlborough, MA, USA). […] Sensorgrams were recorded and analyzed in real-time using the control software in the BIAcore T200 system. All data were analyzed using the BIA evaluation software (Cytiva).

THP-1 cells = assay: Released HMGB1 in supernatant of TBZ-treated cells; assay type: cell-based, human; conditions: TBZ-treated THP-1, different concentrations, 8 h
Procedure: TBZ-treated cell supernatants were harvested and centrifuged using Amicon ultra centrifugal filters 10 kDa (UFC501096, Millipore, Billerica, MA, USA) at 4000×g for 1 h. The concentrated supernatants were analyzed using SDS-PAGE to assess released HMGB1 levels.

T1 sequence (Q8NB16 2-154 C86A/L89A/D94A): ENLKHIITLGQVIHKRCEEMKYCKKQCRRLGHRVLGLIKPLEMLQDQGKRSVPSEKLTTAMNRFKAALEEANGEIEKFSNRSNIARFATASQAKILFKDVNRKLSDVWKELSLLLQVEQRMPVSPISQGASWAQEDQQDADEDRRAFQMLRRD

Row | Compound | binding in SPR (Nt-hMLKL^C86A/L89A/D94A) | HMGB1 release (THP-1 cells)
1 | CN1CCc2cccc3c4c(cc1c23)C=CC(=O)C4=O [Ox-APO] | no binding | 
2 | CN1CCc2cccc3c2[C@@H]1Cc1ccc(O)c(O)c1-3 [S62, (6aS)-6-methyl-5,6,6a,7-tetrahydro-4H-dibenzo[de,g]quinoline-10,11-diol] |  | dose-dependently decreased
